Calls of active or inactive are those of the source. No cut-off for these calls is given here.
Tests used:
[1] = Toxicity in BALB/c nude mouse xenografted with human MNNG/HOS cells assessed as body weight loss at 62.5 mg/kg, ip administered twice per day for 18 days; type: organism-based, HOS-TE85; settings: in vivo, 432 h, time 18 day
HOS-TE85 [2] = assay: Cell cycle arrest in human MNNG/HOS cells assessed as accumulation at G2/M phase at 5 uM measured after 24 hrs by propidium iodide staining based flow cytometry(Rvb=21.2%); type: functional
HOS-TE85 [3] = assay: Cell cycle arrest at human MNNG/HOS cells assessed as accumulation at G0/G1 phase at 5 uM measured after 24 hrs by propidium iodide staining based flow cytometry(Rvb=37.12%); type: functional
[4] = Toxicity in BALB/c nude mouse xenografted with human MNNG/HOS cells assessed as effect on heart morphology by H and E staining assay at 62.5 mg/kg, ip administered twice per day for 18 days; type: organism-based, HOS-TE85; settings: in vivo, 432 h, time 18 day
HOS-TE85 [5] = assay: Antitumor activity against human MNNG/HOS cells xenografted in BALB/c nude mouse assessed as reduction in tumor weight at 62.5 mg/kg, ip administered twice per day for 18 days; type: functional, organism-based; settings: time 18.0 day
SJSA-1 [6] = assay: Antiproliferative activity against human SJSA-1 cells with increase MYOF expression assessed as cell growth inhibition incubated for 72 hrs by CCK-8 assay; type: functional, cell-based; settings: SJSA-1, 72 h
[7] = Half life in male ICR mouse at 5 mg/kg, iv measured upto 24 hrs by LC-MS/MS analysis; type: ADME, organism-based; settings: in vivo
HOS-TE85 [8] = assay: Antiproliferative activity against human MNNG/HOS cells assessed as cell growth inhibition measured after 72 hrs by CCK-8 assay; type: functional, cell-based; settings: HOS-TE85, 72 h
[9] = AUC(0 to infinity) in male ICR mouse at 12.5 mg/kg, iv measured upto 24 hrs by LC-MS/MS analysis; type: ADME, organism-based; design: time < 24 hrs, dose 12.5 mg/kg, route iv; settings: in vivo
[10] = Half life in male ICR mouse at 12.5 mg/kg, iv measured upto 24 hrs by LC-MS/MS analysis; type: ADME, organism-based; settings: in vivo
[11] = Toxicity in BALB/c nude mouse xenografted with human MNNG/HOS cells assessed as effect on kidney morphology by H and E staining assay at 62.5 mg/kg, ip administered twice per day for 18 days; type: organism-based, HOS-TE85; settings: in vivo, 432 h, time 18 day
MG-63 [12] = assay: Antiproliferative activity against human MG-63 cells assessed as cell growth inhibition measured after 72 hrs by CCK-8 assay; type: functional, cell-based; settings: MG-63, 72 h
K562 = assay: Antiproliferative activity against human K562 cells with low MYOF expression assessed as cell growth inhibition incubated for 72 hrs by CCK-8 assay; type: functional, cell-based; settings: K562, 72 h
[13] = Drug distribution in tumor of BALB/c nude mouse xenografted with human MNNG/HOS cells at 62.5 mg/kg,ip measured after 12 hrs; type: ADME, organism-based, Neoplasm, HOS-TE85; settings: read-out: Ct
[14] = Toxicity in ICR mouse at 300 mg/kg, ip administered daily for a week; type: organism-based; settings: in vivo
[15] = Oral bioavailability in male ICR mouse at 25 mg/kg measured upto 24 hrs by LC-MS/MS analysis; type: ADME, organism-based; settings: in vivo
[16] = Toxicity in BALB/c nude mouse xenografted with human MNNG/HOS cells assessed as effect on ratio of heart weight to body weight at 62.5 mg/kg, ip administered twice per day for 18 days; type: organism-based, HOS-TE85; settings: in vivo, 432 h, time 18 day
SW1353 = assay: Antiproliferative activity against human SW1353 cells assessed as cell growth inhibition measured after 72 hrs by CCK-8 assay; type: functional, cell-based; settings: SW1353, 72 h
[17] = Toxicity in BALB/c nude mouse xenografted with human MNNG/HOS cells assessed as effect on ratio of spleen weight to body weight at 62.5 mg/kg, ip administered twice per day for 18 days; type: organism-based, HOS-TE85; settings: in vivo, 432 h, time 18 day
U2OS = assay: Antiproliferative activity against human U2OS cells assessed as cell growth inhibition measured after 72 hrs by CCK-8 assay; type: functional, cell-based
HOS-TE85 [18] = assay: Antiproliferative activity against human MNNG/HOS cells with increase MYOF expression assessed as cell growth inhibition incubated for 72 hrs by CCK-8 assay; type: functional, cell-based; settings: HOS-TE85, 72 h
143B = assay: Antiproliferative activity against human 143B cells assessed as cell growth inhibition measured after 72 hrs by CCK-8 assay; type: functional, cell-based
[19] = Toxicity in BALB/c nude mouse xenografted with human MNNG/HOS cells assessed as effect on spleen morphology by H and E staining assay at 62.5 mg/kg, ip administered twice per day for 18 days; type: organism-based, HOS-TE85; settings: in vivo, 432 h, time 18 day
HOS-TE85 [20] = assay: Antitumor activity against human MNNG/HOS cells xenografted in female BALB/c nude mouse assessed as tumor growth inhibition at 62.5 mg/kg, ip administered twice per day for 18 days relative to control; type: functional; settings: HOS-TE85, 432 h, time 18 day, read-out: TGI
[21] = Drug distribution in plasma of BALB/c nude mouse xenografted with human MNNG/HOS cells at 62.5 mg/kg,ip measured after 12 hrs; type: ADME, organism-based, HOS-TE85
[22] = Bioavailability in male ICR mouse at 62.5 mg/kg, ip measured upto 24 hrs by LC-MS/MS analysis; type: ADME, organism-based; settings: in vivo
[23] = Toxicity in ICR mouse at 800 mg/kg, ip; type: organism-based; settings: in vivo
SJSA-1 [24] = assay: Antiproliferative activity against human SJSA-1 cells assessed as cell growth inhibition measured after 72 hrs by CCK-8 assay; type: functional, cell-based; settings: SJSA-1, 72 h
HL-60 = assay: Antiproliferative activity against human HL-60 cells with low MYOF expression assessed as cell growth inhibition incubated for 72 hrs by CCK-8 assay; type: functional, cell-based; settings: HL-60, 72 h
HOS-TE85 [25] = assay: Inhibition of cell migration in human MNNG/HOS cells at 5 nM measured after 24 hrs by transwell assay; type: functional
HOS-TE85 [26] = assay: Antiproliferative activity against human MNNG/HOS cells with low MYOF expression assessed as cell growth inhibition incubated for 72 hrs by CCK-8 assay; type: functional, cell-based; settings: HOS-TE85, 72 h
[27] = Cytotoxicity against human GES1 cells assessed as growth inhibition measured after 72 hrs by CCK-8 assay; type: toxicity, cell-based
MG-63 [28] = assay: Antiproliferative activity against human MG-63 cells with increase MYOF expression assessed as cell growth inhibition incubated for 72 hrs by CCK-8 assay; type: functional, cell-based; settings: MG-63, 72 h
HOS-TE85 [29] = assay: Cell cycle arrest at human MNNG/HOS cells assessed as accumulation at S phase at 5 uM measured after 24 hrs by propidium iodide staining based flow cytometry(Rvb=38.9%); type: functional
[30] = Plasma clearance in male ICR mouse at 12.5 mg/kg, iv measured upto 24 hrs by LC-MS/MS analysis; type: ADME, organism-based
[31] = Cmax in male ICR mouse at 62.5 mg/kg, ip measured upto 24 hrs by LC-MS/MS analysis; type: ADME, organism-based; design: dose 62.5 mg/kg, time < 24 hrs, route ip; settings: in vivo
HOS-TE85 [32] = assay: Inhibition of cell migration in human MNNG/HOS cells at 20 nM measured after 24 hrs by wound healing assay relative to control; type: functional
HOS = assay: Antiproliferative activity against human HOS cells assessed as cell growth inhibition measured after 72 hrs by CCK-8 assay; type: functional, cell-based
[33] = Half life in male ICR mouse at 62.5 mg/kg, ip measured upto 24 hrs by LC-MS/MS analysis; type: ADME, organism-based; settings: in vivo
[34] = Toxicity in BALB/c nude mouse xenografted with human MNNG/HOS cells assessed as effect on ratio of liver weight to body weight at 62.5 mg/kg, ip administered twice per day for 18 days; type: organism-based, HOS-TE85; settings: in vivo, 432 h, time 18 day
SAOS-2 = assay: Antiproliferative activity against human SAOS-2 cells assessed as growth inhibition measured after 72 hrs by CCK-8 assay; type: functional, cell-based; settings: SAOS-2, 72 h
[35] = AUC(0 to infinity) in male ICR mouse at 62.5 mg/kg, ip measured upto 24 hrs by LC-MS/MS analysis; type: ADME, organism-based; design: dose 62.5 mg/kg, time < 24 hrs, route ip; settings: in vivo
[36] = Toxicity in BALB/c nude mouse xenografted with human MNNG/HOS cells assessed as effect on liver morphology by H and E staining assay at 62.5 mg/kg, ip administered twice per day for 18 days; type: organism-based, HOS-TE85; settings: in vivo, 432 h, time 18 day
[37] = Toxicity in BALB/c nude mouse xenografted with human MNNG/HOS cells assessed as effect on ratio of kidney weight to body weight at 62.5 mg/kg, ip administered twice per day for 18 days; type: organism-based, HOS-TE85; settings: in vivo, 432 h, time 18 day
[38] = Cytotoxicity against human BMSC cells assessed as growth inhibition measured after 72 hrs by CCK-8 assay; type: toxicity, cell-based, HBMSC

Which results are given for `Cc1ccnc(N2C(=O)CS[C@@H]2c2cccc(C(=O)NCCCCn3cccn3)c2)c1`?
Activity [1]: Non-Toxic; Activity (HOS-TE85 [2]): 10.21%; Activity (HOS-TE85 [3]): 59.69%; Activity [4]: Non-Toxic; Activity (HOS-TE85 [5]): Active; IC50 (SJSA-1 [6]): 62.2 nM; half-life [7]: 23.4 min; IC50 (HOS-TE85 [8]): 21.9 nM; AUC(0-inf) [9]: 3230 ng·h/mL; half-life [10]: 3.66 min; Activity [11]: Non-Toxic; IC50 (MG-63 [12]): 14.9 nM; IC50 (K562): 28.1 nM; concentration at 12 h [13]: 110 nM; Activity [14]: Non-Toxic; bioavailability [15]: 0.36%; Activity [16]: Non-Toxic; IC50 (SW1353): 19.9 nM; Activity [17]: Non-Toxic; IC50 (U2OS): 26.5 nM; IC50 (HOS-TE85 [18]): 31.6 nM; IC50 (143B): 29.5 nM; Activity [19]: Non-Toxic; inhibition in vivo at 62.5 mg/kg (HOS-TE85 [20]): 52.9%; concentration at 12 h [21]: 55.5 nM; bioavailability [22]: 52.1%; Activity [23]: Non-Toxic; IC50 (SJSA-1 [24]): 62.2 nM; IC50 (HL-60): 19 nM; inhibition at 0.005 µM (HOS-TE85 [25]): 60%; IC50 (HOS-TE85 [26]): 35.2 nM; IC50 at 72 h [27]: > 20000 nM; IC50 (MG-63 [28]): 14.9 nM; Activity (HOS-TE85 [29]): 30.1%; clearance [30]: 66.9 mL/min/kg; Cmax [31]: 20500 ng/mL; inhibition at 0.02 µM (HOS-TE85 [32]): 50%; IC50 (HOS): 50.9 nM; half-life [33]: 38.5 min; Activity [34]: Non-Toxic; IC50 (SAOS-2): 26.8 nM; AUC(0-inf) [35]: 8410 ng·h/mL; Activity [36]: Non-Toxic; Activity [37]: Non-Toxic; IC50 at 72 h [38]: > 10000 nM
